Source: patent US20080070987A1, “META-XYLYLENEDIAMINE VANADATE SALTS” (priority 2006, published 2008)
“Also recorded” adds a separate entry of the source.

Tested on: isolated rat adipocytes
Assay: Glucose (2-deoxyglucose) transport in isolated rat adipocytes
Format: cell-based, Wistar rats
Conditions: for effect of semicarbazide on the stimulation of glucose transport: 1 mM semicarbazide; for stimulation of glucose transport (2-DG uptake), in words: 45 min incubation; for stimulation of glucose transport compared with the combination of benzylamine and vanadate: combination 100 μM benzylamine and 100 μM vanadate
Method: FIG. 1 is a graphical illustration of the hexaquis(benzylammonium) decavanadate effects on glucose transport in isolated rat adipocytes. In this Figure, V corresponds to the rate of 2-deoxyglucose transport (expressed relative to the basal rate), and the results are mean +standard error of the mean (SEM). The adipocytes were incubated in the absence of stimulants in the following conditions: basal (1); in the presence of 100 nM insulin (2); in the presence of hexaquis(benzylammonium) decavanadate at concentrations of 0.5 μM (3), 1 μM (4), 2.5 μM (5), 5 μM (6), 10 μM (7), 25 μM (8), 50 μM (9), and 100 μM (10). The cells were also incubated in the presence of the semicarbazide inhibitor (1 mM), and 10 μM hexaquis(benzylammonium) decavanadate (11), 25 μM of hexaquis(benzylammonium) decavanadate (12) or 50 μM hexaquis(benzylammonium) decavanadate (13). In parallel, the cells were incubated in presence of 100 μM of sodium vanadate and 100 μM of benzylamine, in the absence (14) or in the presence of 1 mM of semicarbazide (15).
FIG. 2 is a graphical illustration of the effects of hexaquis(benzylammonium) decavanadate, pentaquis(benzylammonium) decavanadate and tetraquis(benzylammonium) decavanadate on glucose transport in isolated rat adipocytes. V corresponds to the rate of 2-deoxyglucose uptake (expressed as relation with basal group), and the results are mean +standard error mean. The adipocytes were incubated in the absence of stimulants in the following conditions: basal (1); in the presence of 100 nM of insulin (2); in the presence of hexaquis(benzylammonium) decavanadate at concentrations of 10 μM (3) and 25 μM (4), pentaquis(benzylammonium) decavanadate at concentrations of 10 μM (8) and 25 μM (9), and tetraquis(benzylammonium) decavanadate at concentrations of 10 μM (11) and 25 μM (12). The cells were also incubated in the presence of the semicarbazide inhibitor (1 mM) and, 25 μM of hexaquis(benzylammonium) decavanadate (5), 25 μM of pentaquis(benzylammonium) decavanadate (10) or 25 μM of tetraquis(benzylammonium) decavanadate (13). In parallel, the cells were incubated in the presence of 100 μM of sodium vanadate (6) or in the presence of 250 μM of sodium vanadate (7).
Adipose cells from Wistar rats were incubated for 45 minutes in basal conditions (Basal) or in the presence of 100 nM insulin (Ins) and different concentrations of. hexaquis(benzylammonium) decavanadate (B6V10) in the absence or in the presence of 1 mM semicarbazide (SCZ). Subsequently, 2-DG transport was measured over a 5 min. interval.
The effects of the three tested compounds (B6V10, B5V10 and B4V10) were compared. Adipose cells from Wistar rats were incubated for 45 minutes in basal conditions (Basal) or in the presence of 100 nM insulin (Ins), and different concentrations of decavanadate (V10), hexaquis(benzylammonium) decavanadate (B6V10), pentaquis(benzylammonium) decavanadate (B5V10) or tetraquis(benzylammonium) decavanadate (B4V10) in the absence or in the presence of 1 mM semicarbazide (SCZ). 2-DG transport was measured over 5 min. intervals.
In additional experiments, compounds shown in FIG. 6A, 2-(4-fluoro-phenyl)ethylamine (compound A), 3-phenylpropylamine (compound B), 4-fluoro-benzylamine (compound C) and 4-phenylbutylamine (compound D) were assessed using the experimental methods set forth above for the capacity to stimulate 2-DG uptake in isolated rat adipocytes. Adipose cells from Wistar rats were incubated for 45 minutes in basal conditions (Basal) or in the presence of 100 nM insulin (Ins), and different concentrations of vanadium salts of 2-(4-fluoro-phenyl)-ethylamine (compound A), 3-phenyl-propylamine (compound B), 4-fluoro-benzylamine (compound C) and 4-phenyl-butylamine (compound D). 2-DG transport was measured over 5 min.
The effects of incubation with semicarbazide or phosphatidylinositol 3-kinase inhibitors were also investigated. […]

[1] = listed as hexaquis(benzylammonium) decavanadate

| Substance | effect of semicarbazide on the stimulation of glucose transport | effect of semicarbazide on the stimulation of glucose transport [1] | stimulation of glucose transport (2-DG uptake), in words | stimulation of glucose transport (2-DG uptake), in words [1] | concentration from which stimulation of glucose transport is perceptible (FIG. 1) [µM] | concentration of maximal effect on glucose transport (FIG. 1) [µM] | EC50 (FIG. 1, read-out: concentration of semimaximal effect on glucose transport) [nM] | stimulation of glucose transport compared with the combination of benzylamine and vanadate | stimulation of glucose transport compared with the combination of benzylamine and vanadate [1] | maximal effect on glucose transport as % of the maximal stimulation caused by insulin (insulin 100 nM) [%] | stimulation of glucose transport, in words (concentrations ranging from 5 to 50 μM) |
| --- | --- | --- | --- | --- | --- | --- | --- | --- | --- | --- | --- |
| hexaquis(benzylammonium) decavanadate [Example B6V10] | completely blocked by semicarbazide; also recorded: blocked in the presence of semicarbazide | completely blocked by semicarbazide | concentration-dependent manner | pronounced stimulation on glucose transport | 0.5 | 2.5 | > 1000 | greater stimulation | greater than that produced by the presence of benzylamine and vanadate in combination | 85 | – |
| sodium decavanadate [Example V10, reference compound] | – | – | – | – | – | – | – | – | – | – | did not stimulate glucose transport |
